Data taken from the CheMixHub viscosity set.
Several values for one entry are separate records, joined by “and”; a condition that tells them apart may be missing. Identical values can stand only once. ± gives the uncertainty stated by the source.

Test: xn = mol fraction of the nth substance listed
Settings: 101 kPa

CCCCCCCCCO + CO
viscosity [mPa·s]
Settings | 298.15 K | 308.15 K | 318.15 K
x2 = 0.05 | 8.515 ± 0.081 | 6.146 ± 0.058 | 4.44 ± 0.042
x2 = 0.1 | 7.93 ± 0.076 | 5.765 ± 0.054 | 4.2 ± 0.039
x2 = 0.15 | 7.356 ± 0.07 | 5.387 ± 0.05 | 3.958 ± 0.037
x2 = 0.2 | 6.793 ± 0.064 | 5.013 ± 0.047 | 3.716 ± 0.034
x2 = 0.25 | 6.245 ± 0.059 | 4.644 ± 0.043 | 3.474 ± 0.031
x2 = 0.3 | 5.711 ± 0.054 | 4.281 ± 0.039 | 3.233 ± 0.029
x2 = 0.35 | 5.193 ± 0.049 | 3.925 ± 0.036 | 2.994 ± 0.027
x2 = 0.4 | 4.694 ± 0.044 | 3.579 ± 0.032 | 2.756 ± 0.024
x2 = 0.45 | 4.214 ± 0.039 | 3.242 ± 0.029 | 2.521 ± 0.022
x2 = 0.5 | 3.754 ± 0.034 | 2.916 ± 0.026 | 2.29 ± 0.02
x2 = 0.55 | 3.317 ± 0.03 | 2.603 ± 0.023 | 2.063 ± 0.018
x2 = 0.6 | 2.902 ± 0.026 | 2.302 ± 0.02 | 1.841 ± 0.016
x2 = 0.65 | 2.511 ± 0.022 | 2.016 ± 0.018 | 1.625 ± 0.014
x2 = 0.7 | 2.146 ± 0.019 | 1.744 ± 0.015 | 1.417 ± 0.012
x2 = 0.75 | 1.807 ± 0.016 | 1.488 ± 0.013 | 1.215 ± 0.011
x2 = 0.8 | 1.496 ± 0.013 | 1.248 ± 0.011 | 1.023 ± 0.009
x2 = 0.85 | 1.212 ± 0.011 | 1.025 ± 0.009 | 0.8404 ± 0.0074
x2 = 0.9 | 0.9583 ± 0.0084 | 0.8198 ± 0.0073 | 0.6684 ± 0.006
x2 = 0.95 | 0.7342 ± 0.0066 | 0.6326 ± 0.0059 | 0.508 ± 0.0048

CC(=O)N1CCOCC1 + CCCCO
viscosity [mPa·s]
Settings | 293.15 K | 303.15 K | 313.15 K | 323.15 K
x1 = 0.0555 | 4.367 ± 0.14 | 3.576 ± 0.12 | 2.739 ± 0.092 | 1.957 ± 0.068
x1 = 0.1321 | 5.668 ± 0.18 | 4.813 ± 0.16 | 3.879 ± 0.13 | 3.051 ± 0.1
x1 = 0.2165 | 6.805 ± 0.21 | 5.881 ± 0.18 | 5.042 ± 0.16 | 4.16 ± 0.14
x1 = 0.2844 | 7.59 ± 0.23 | 6.613 ± 0.2 | 5.581 ± 0.18 | 4.657 ± 0.15
x1 = 0.3126 | 7.757 ± 0.23 | 6.756 ± 0.2 | 5.6 ± 0.18 | 4.662 ± 0.15
x1 = 0.4042 | 8.369 ± 0.24 | 7.294 ± 0.22 | 6.023 ± 0.19 | 5.03 ± 0.17
x1 = 0.4673 | 8.697 ± 0.25 | 7.57 ± 0.23 | 6.22 ± 0.19 | 5.191 ± 0.17
x1 = 0.5033 | 8.878 ± 0.26 | 7.734 ± 0.23 | 6.31 ± 0.2 | 5.257 ± 0.17
x1 = 0.5562 | 9.001 ± 0.26 | 7.801 ± 0.23 | 6.341 ± 0.2 | 5.256 ± 0.17
x1 = 0.6237 | 9.088 ± 0.27 | 7.833 ± 0.23 | 6.29 ± 0.2 | 5.164 ± 0.17
x1 = 0.6431 | 8.989 ± 0.26 | 7.719 ± 0.23 | 6.152 ± 0.19 | 5.014 ± 0.17
x1 = 0.6903 | 9.041 ± 0.27 | 7.732 ± 0.23 | 6.105 ± 0.19 | 4.937 ± 0.17
x1 = 0.7439 | 8.864 ± 0.26 | 7.512 ± 0.23 | 5.819 ± 0.19 | 4.62 ± 0.15
x1 = 0.7911 | 8.713 ± 0.26 | 7.322 ± 0.23 | 5.569 ± 0.18 | 4.342 ± 0.15
x1 = 0.8624 | 8.88 ± 0.27 | 7.431 ± 0.23 | 5.591 ± 0.18 | 4.32 ± 0.15
x1 = 0.9222 | 8.663 ± 0.26 | 7.164 ± 0.22 | 5.249 ± 0.17 | 3.943 ± 0.14
x1 = 0.9785 | 8.737 ± 0.26 | 7.193 ± 0.23 | 5.209 ± 0.17 | 3.868 ± 0.13

O=C[C@H](O)[C@@H](O)[C@@H](O)CO + O
viscosity
Settings | 293.15 K | 298.15 K | 303.15 K | 308.15 K | 313.15 K | 318.15 K
x1 = 0.0031 | 1.059 ± 0.013 mPa·s | – | 0.8425 ± 0.011 mPa·s | 0.7555 ± 0.0094 mPa·s | 0.6857 ± 0.0085 mPa·s | 0.6277 ± 0.0078 mPa·s
x1 = 0.006 | 1.122 ± 0.024 mPa·s and 1.122 ± 0.014 mPa·s (2×) | 0.9982 ± 0.021 mPa·s and 0.9982 ± 0.012 mPa·s (2×) | 0.8927 ± 0.019 mPa·s and 0.8927 ± 0.011 mPa·s (2×) | 0.7947 ± 0.017 mPa·s and 0.7947 ± 0.0098 mPa·s and 0.7947 ± 0.0099 mPa·s | 0.7187 ± 0.015 mPa·s and 0.7187 ± 0.0089 mPa·s (2×) | 0.6585 ± 0.014 mPa·s and 0.6585 ± 0.0081 mPa·s and 0.6585 ± 0.0082 mPa·s
x1 = 0.0063 | 1.122 ± 0.014 mPa·s | 0.9982 ± 0.013 mPa·s | 0.8927 ± 0.011 mPa·s | 0.7947 ± 0.01 mPa·s | 0.7187 ± 0.009 mPa·s | 0.6585 ± 0.0082 mPa·s
x1 = 0.013 | 1.232 ± 0.026 mPa·s and 1.232 ± 0.015 mPa·s (2×) | – | 0.9886 ± 0.021 mPa·s and 0.9886 ± 0.012 mPa·s (2×) | 0.8863 ± 0.019 mPa·s and 0.8863 ± 0.011 mPa·s (2×) | 0.7996 ± 0.017 mPa·s and 0.7996 ± 0.0099 mPa·s (2×) | 0.7229 ± 0.015 mPa·s and 0.7229 ± 0.0089 mPa·s and 0.7229 ± 0.009 mPa·s

CN(C)CCCO + O
viscosity [mPa·s]
Settings | 303.15 K | 308.15 K | 313.15 K | 318.15 K | 323.15 K
x1 = 0.0478 | 2.218 ± 0.021 | 1.896 ± 0.016 | 1.635 ± 0.015 | 1.432 ± 0.014 | 1.262 ± 0.013
x1 = 0.0968 | 4.633 ± 0.036 | 3.796 ± 0.029 | 3.147 ± 0.025 | 2.654 ± 0.021 | 2.264 ± 0.019
x1 = 0.1512 | 7.882 ± 0.058 | 6.285 ± 0.049 | 5.078 ± 0.04 | 4.181 ± 0.032 | 3.481 ± 0.028
x1 = 0.2009 | – | 8.49 ± 0.067 | 6.753 ± 0.053 | 5.485 ± 0.043 | 4.497 ± 0.038
x1 = 0.2997 | 14.97 ± 0.11 | 11.59 ± 0.097 | 9.103 ± 0.075 | 7.288 ± 0.059 | 5.903 ± 0.052
x1 = 0.3537 | – | 12.35 ± 0.11 | 9.663 ± 0.082 | 7.732 ± 0.065 | 6.247 ± 0.055
x1 = 0.4037 | 16.02 ± 0.13 | 12.42 ± 0.11 | 9.761 ± 0.084 | 7.792 ± 0.067 | 6.34 ± 0.057
x1 = 0.4574 | 15.39 ± 0.13 | 12 ± 0.11 | 9.458 ± 0.084 | 7.631 ± 0.067 | 6.19 ± 0.057
x1 = 0.499 | 14.63 ± 0.13 | 11.46 ± 0.11 | 9.077 ± 0.082 | 7.329 ± 0.066 | 5.974 ± 0.056
x1 = 0.6012 | 12.08 ± 0.11 | 9.654 ± 0.092 | 7.784 ± 0.074 | 6.38 ± 0.061 | 5.271 ± 0.052
x1 = 0.7274 | 9.064 ± 0.091 | 7.42 ± 0.075 | 6.133 ± 0.063 | 5.114 ± 0.052 | 4.304 ± 0.045
x1 = 0.8081 | 7.504 ± 0.079 | 6.239 ± 0.066 | 5.224 ± 0.056 | 4.417 ± 0.047 | 3.765 ± 0.041
x1 = 0.9112 | 5.925 ± 0.067 | 5.02 ± 0.057 | 4.261 ± 0.048 | 3.658 ± 0.042 | 3.168 ± 0.036
